Experimental findings from patent US20220348595A1, “COMPOUNDS AND METHODS FOR THE TARGETED DEGRADATION OF ESTROGEN RECEPTORS” (Endotarget Inc., priority 2021, published 2022) are described below.

Holding throughout (type): cell-based
For test [1], the system named is MCF-7 breast cancer cells. In words: MCF-7 proliferation / cell viability assay. As to conditions: Homo sapiens, MCF7; MCF-7 proliferation with 0.1 nM 17-beta estradiol; read-out: IC50 (anti-proliferation). The method, then: The Anti-Proliferative Activities of the Exemplary Compounds were Assessed by a Cell Viability Assay in MCF-7 Breast Cancer Cells
MCF-7 cells were plated in six-well plates at a density of 50,000 each well in 5% FBS DMEM medium. The cells were then treated with exemplary compounds or fulvestrant separately at 6 different doses ranging from 10^−10 M to 10^−5 M for 5 days, while equal volumes of DMSO were used as vehicle controls. Viable cell numbers were counted with a Z Series Coulter Counter instrument (Beckman-Coulter) following manufacturer's instructions. The ratio of drug treated viable cell numbers to vehicle treated viable cell numbers was defined as survival ratio where the control has the survival ratio of 100%.

A further test has as its target T1, ER (Homo sapiens, UniProt P03372).
T1 construct: endogenous in cells; host or cells: T47d-kb-Luc (T47D stably transfected with a luciferase reporter gene only)
T1 sequence (P03372 1-595): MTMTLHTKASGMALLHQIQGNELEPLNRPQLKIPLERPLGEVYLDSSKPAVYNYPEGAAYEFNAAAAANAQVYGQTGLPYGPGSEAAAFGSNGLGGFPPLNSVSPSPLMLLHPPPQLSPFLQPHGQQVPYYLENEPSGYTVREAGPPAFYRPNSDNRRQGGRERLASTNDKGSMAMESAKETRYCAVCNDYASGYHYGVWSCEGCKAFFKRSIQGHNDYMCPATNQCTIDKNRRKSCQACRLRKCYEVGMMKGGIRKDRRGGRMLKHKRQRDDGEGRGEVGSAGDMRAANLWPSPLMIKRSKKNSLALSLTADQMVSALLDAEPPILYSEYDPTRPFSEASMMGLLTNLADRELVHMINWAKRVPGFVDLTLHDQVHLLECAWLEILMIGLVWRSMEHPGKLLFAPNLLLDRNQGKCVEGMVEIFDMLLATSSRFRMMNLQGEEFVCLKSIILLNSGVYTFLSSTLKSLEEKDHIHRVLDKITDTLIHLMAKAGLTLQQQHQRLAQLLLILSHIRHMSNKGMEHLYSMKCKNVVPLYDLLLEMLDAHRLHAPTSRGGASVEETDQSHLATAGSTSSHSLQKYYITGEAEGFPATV
The test can be described thus: ER antagonism (T47D ERE luciferase), T47d-kb-Luc cells. The settings on record: read-out: IC50 (ER antagonistm). The method, then:
The Antiestrogenic Activity of the Exemplary Compounds was Assessed in T47d-kb-Luc Stably Transfected Human Breast Cancer Cell
Antagonist activities were measured by the compound's ability to inhibit the activity of estradiol, the natural estrogen. Data were then normalized relative to the activity of the estradiol control and determinations were performed for five concentrations of the samples in quadruplicate in at least three separate experiments.

The next test concerns the target T2, ERα (Homo sapiens, UniProt P03372).
T2 construct: endogenous in cells; host or cells: MCF-7
T2 sequence (P03372 1-595): T1 sequence (P03372 1-595)
In words: ER degradation in MCF-7 cells (Western blot). The settings on record: for DC50: ER degradation, 24 hours; for Dmax: MCF7, Maximal ER degradation, read-out: Dmax. On the procedure:
Degradation of ER in MCF-7 Breast Cancer Cells by Exemplary Compounds of the Present Disclosure
MCF-7 cells were plated in 24-well plates at a density of 10^5 cells/well. Media containing various drug concentrations were added on the day following plating (day 0) and allowed to incubate for 24 hours for Western blot. Media with the tested compound was changed every other day. Cells were lysed, snapped frozen in liquid nitrogen, and stored at −80° C. until assay for ERα. Media were removed and dishes were washed with 1× DPBS. Lysates were made by adding 150 μL of complete lysis solution and scraping cells into a 1.5 mL microcentrifuge tube. Lysates were placed on a rotisserie at 4° C. for 30 min and then spun at 4° C. at 12000 rcf for 10 min. Supernatants were assayed for protein content, snap-frozen, and stored a −80° C. if not run immediately. Then 50 μg of protein was subjected to Western blot protocol. Membranes were blocked and then incubated with 1:200 dilution of ERα antibody at 4° C. overnight followed by 1:10000 dilution of secondary antibody for 1 h at room temperature. They were then imaged on a LICOR infrared scanner.
FIGS. 1 to 10 show the ER degradation efficacy of compounds 3, 5, 9, 11, 12, 16, 18, 19, 20, 21, 23, 24, 25, 26, 27, 28, 29, 30, 31, 32, 33, 34, 37, 38, and 40 in MCF-7 cells at various concentrations. Degradation of ER was expressed as an DC50 value and was determined for exemplary compounds in Table 1 by calculation of the concentration of compound that was required to give a 50% reduction of ER expression level. Maximal degradation of ER was expressed as a Dmax value by measuring the highest percentage of ER reduction achieved by exemplary compound in the treatment concentration range.
Background: Immunoblotting shows a protein as a band on a membrane.

A word on the DC50: it is the concentration at which degradation of the target reaches its halfway point. Read a high DC50 as degradation only at high concentration. One may read the Dmax as the greatest extent of degradation seen. `CC/C(=C(/c1ccc(O)cc1)c1ccc(OCCN2CCN(C(=O)N3CCC(CN4CCN(c5ccc6c(c5)CN(C5CCC(=O)NC5=O)C6=O)CC4)CC3)CC2)cc1)c1ccccc1` (stereo not shown) [Compound 90, (E)-3-(5-(4-((1-(4-(2-(4-(1-(4-hydroxyphenyl)-2-phenylbut-1-en-1-yl)phenoxy)ethyl)piperazine-1-carbonyl)piperidin-4-yl)methyl)piperazin-1-yl)-1-oxoisoindolin-2-yl)piperidine-2,6-dione]: in test [1], the IC50 is less than 10 nM. For the same compound, the IC50 on ER is less than 10 nM. Moreover, on ERα, the DC50 was less than 10 nM and the Dmax was more than 90%.

Take `CC/C(=C(\c1ccc(OCCN2CCC(CN3CCN(c4ccc5c(c4)CN([C@H]4CCC(=O)NC4=O)C5=O)CC3)CC2)cc1)c1ccc(B(O)O)cc1)c1ccccc1` [Compound 75, (S,E)-(4-(1-(4-(2-(4-((4-(2-(2,6-dioxopiperidin-3-yl)-1-oxoisoindolin-5-yl)piperazin-1-yl)methyl)piperidin-1-yl)ethoxy)phenyl)-2-phenylbut-1-en-1-yl)phenyl)boronic acid]: the IC50 (in test [1]; on ER) was less than 10 nM in each case. Besides, the DC50 on ERα was less than 10 nM. In addition, the Dmax at ERα was more than 90%.

For the compound `CC/C(=C(\c1ccc(OCCN2CCN(CCCNc3ccc4c(c3)C(=O)N(C3CCC(=O)NC3=O)C4=O)CC2)cc1)c1ccc(B(O)O)cc1)c1ccccc1` (stereo not shown) [Compound 16, (E)-(4-(1-(4-(2-(4-(3-((2-(2,6-dioxopiperidin-3-yl)-1,3-dioxoisoindolin-5-yl)amino)propyl)piperazin-1-yl)ethoxy)phenyl)-2-phenylbut-1-en-1-yl)phenyl)boronic acid], the IC50 (in test [1]; on ER) was 10 to 50 nM in each case. Besides, the DC50 on ERα is 10 to 50 nM. The Dmax at ERα is more than 75%.

For `CC/C(=C(\c1ccc(B(O)O)cc1)c1ccc(N2CCC(CN3CCN(c4ccc5c(c4)C(=O)N(C4CCC(=O)NC4=O)C5)CC3)CC2)cc1)c1ccccc1` (stereo not shown) [Compound 3, (Z)-(4-(1-(4-(4-((4-(2-(2,6-dioxopiperidin-3-yl)-3-oxoisoindolin-5-yl)piperazin-1-yl)methyl)piperidin-1-yl)phenyl)-2-phenylbut-1-en-1-yl)phenyl)boronic acid], the IC50 in test [1] was less than 10 nM. The IC50 at ER was less than 10 nM. Moreover, at ERα, the DC50 was more than 50 nM and the Dmax is more than 75%.

Take `CC/C(=C(\c1ccc(B(O)O)cc1)c1ccc(N2CCC(CCN3CCN(c4ccc5c(c4)CN(C4CCC(=O)NC4=O)C5=O)CC3)CC2)cc1)c1ccccc1` (stereo not shown) [Compound 7, (Z)-(4-(1-(4-(4-(2-(4-(2-(2,6-dioxopiperidin-3-yl)-1-oxoisoindolin-5-yl)piperazin-1-yl)ethyl)piperidin-1-yl)phenyl)-2-phenylbut-1-en-1-yl)phenyl)boronic acid]: the IC50 in test [1] was 10 to 50 nM. In addition, the IC50 on ER is less than 10 nM. Also, on ERα, the DC50 lay in the range of 10 to 50 nM and the greatest degradation seen (Dmax) is more than 90%.

Take `CC/C(=C(/c1ccc(B(O)O)cc1)c1ccc(N2CCN(C(=O)N3CCN(c4ccc5c(c4)CN([C@H]4CCC(=O)NC4=O)C5=O)CC3)CC2)cc1)c1ccccc1` [Compound 107, (S,E)-(4-(1-(4-(4-(4-(2-(2,6-dioxopiperidin-3-yl)-1-oxoisoindolin-5-yl)piperazine-1-carbonyl)piperazin-1-yl)phenyl)-2-phenylbut-1-en-1-yl)phenyl)boronic acid]: the IC50 (in test [1]; at ER) was less than 10 nM in each case. In addition, the DC50 on ERα was less than 10 nM. The Dmax at ERα was more than 90%.

In the case of `CC/C(=C(\c1ccc(O)cc1)c1ccc(OCCN2CCN(C(=O)N3CCN(c4ccc5c(c4)CN([C@@H]4CCC(=O)NC4=O)C5=O)CC3)CC2)cc1)c1ccccc1` [Compound 79, (R,Z)-3-(5-(4-(4-(2-(4-(1-(4-hydroxyphenyl)-2-phenylbut-1-en-1-yl)phenoxy)ethyl)piperazine-1-carbonyl)piperazin-1-yl)-1-oxoisoindolin-2-yl)piperidine-2,6-dione], the IC50 (in test [1]; at ER) was less than 10 nM throughout. This compound displayed a half-maximal degradation concentration (DC50) on ERα of less than 10 nM. Besides, the Dmax on ERα is more than 90%.

For the compound `CC/C(=C(\c1ccc(B(O)O)cc1)c1ccc(C2CCN(CCCN3CCN(c4ccc5c(c4)C(=O)N(C4CCC(=O)NC4=O)C5=O)CC3)CC2)cc1)c1ccccc1` (stereo not shown) [Compound 47], in test [1], the IC50 was in the range of 10 to 50 nM. Moreover, on ER, the IC50 lay in the range of 10 to 50 nM. Also, on ERα, the DC50 is less than 10 nM and the Dmax was more than 90%.

For `CC/C(=C(/c1ccc(OCCN2CCN(CC3CCN(c4ccc5c(c4)CN([C@@H]4CCC(=O)NC4=O)C5=O)CC3)CC2)cc1)c1ccc(B(O)O)cc1)c1ccccc1` [Compound 70], in test [1], the IC50 was less than 10 nM. Moreover, the IC50 at ER was less than 10 nM. In addition, at ERα, the DC50 was less than 10 nM and the Dmax is more than 90%.

For the compound `CC/C(=C(/c1ccc(B(O)O)cc1)c1ccc(N2CCN(CCC3CCN(c4ccc5c(c4)C(=O)N(C4CCC(=O)NC4=O)C5=O)CC3)CC2)cc1)c1ccccc1` (stereo not shown) [Compound 66, (E)-(4-(1-(4-(4-(2-(1-(2-(2,6-dioxopiperidin-3-yl)-1,3-dioxoisoindolin-5-yl)piperidin-4-yl)ethyl)piperazin-1-yl)phenyl)-2-phenylbut-1-en-1-yl)phenyl)boronic acid], the IC50 in test [1] was 10 to 50 nM. Moreover, the IC50 at ER is 10 to 50 nM. Further, at ERα, the DC50 is less than 10 nM and the maximal degradation (Dmax) is more than 90%.

As for `CC/C(=C(\c1ccc(OCCN2CCC(C3CCN(c4ccc5c(c4)C(=O)N(C4CCC(=O)NC4=O)C5=O)CC3)CC2)cc1)c1ccc(B(O)O)cc1)c1ccccc1` (stereo not shown) [Compound 34, (E)-(4-(1-(4-(2-(1′-(2-(2,6-dioxopiperidin-3-yl)-1,3-dioxoisoindolin-5-yl)-[4,4′-bipiperidin]-1-yl)ethoxy)phenyl)-2-phenylbut-1-en-1-yl)phenyl)boronic acid], the IC50 (in test [1]; on ER) was 10 to 50 nM throughout. For the same compound, the DC50 at ERα was less than 10 nM. Besides, the Dmax at ERα was more than 90%.

As to `CC/C(=C(\c1ccc(OCCN2CCN(CC3CCN(c4ccc5c(c4)CN(C4CCC(=O)NC4=O)C5=O)CC3)CC2)cc1)c1ccc(B(O)O)cc1)c1ccccc1` (stereo not shown) [Compound 22, (E)-(4-(1-(4-(2-(4-((1-(2-(2,6-dioxopiperidin-3-yl)-1-oxoisoindolin-5-yl)piperidin-4-yl)methyl)piperazin-1-yl)ethoxy)phenyl)-2-phenylbut-1-en-1-yl)phenyl)boronic acid], in test [1], the IC50 is less than 10 nM. Besides, at ER, the IC50 was less than 10 nM. Moreover, at ERα, the DC50 was less than 10 nM and the Dmax is more than 90%.

For `CC/C(=C(/c1ccc(OCCN2CCN(CCN3CCN(c4ccc5c(c4)C(=O)N(C4CCC(=O)NC4=O)C5=O)CC3)CC2)cc1)c1ccc(B(O)O)cc1)c1ccccc1` (stereo not shown) [Compound 23, (Z)-(4-(1-(4-(2-(4-(2-(4-(2-(2,6-dioxopiperidin-3-yl)-1,3-dioxoisoindolin-5-yl)piperazin-1-yl)ethyl)piperazin-1-yl)ethoxy)phenyl)-2-phenylbut-1-en-1-yl)phenyl)boronic acid], in test [1], the IC50 lay within 10 to 50 nM. Besides, on ER, the IC50 was 10 to 50 nM. On ERα, the DC50 was less than 10 nM and the Dmax is more than 90%.
